As a reminder, the MIC is the smallest concentration in the dilution series that meets the test's criterion for growth inhibition. Higher therefore signals a less susceptible organism.

Results on one molecule are retold here after patent US20200164023A1, “METHODS FOR PREVENTING AND TREATING INTRA-ABDOMINAL CANDIDIASIS” (Cidara Therapeutics, Inc., priority 2017, published 2020).

One data set relates to C. albicans. Kind of data set: Minimum inhibitory concentration (MIC), IAC study strain. The class given is cell-based. Conditions: Candida albicans. The method, then:
As used herein, the term “minimum inhibitory concentration” or “MIC” refers to the concentration of an antifungal agent at which 50% to 100% growth inhibition of a fungus is achieved relative to a positive growth control. The method of establishing MIC will vary depending on the specific compound tested. For example, for echinocandins (e.g., CD101), MIC endpoints are determined after 24 hours incubation and correspond with the lowest drug concentration to produce a prominent decrease in turbidity (e.g., an approximately 50% reduction in growth relative to the drug-free growth control). For additional methods of determining the MIC of antifungal agents, see CLSI—Reference method for broth dilution antifungal susceptibility testing of yeasts; Approved-standard—Third Edition. CLSI document M27-A3. Wayne, Pa.: Clinical and Laboratory Standards Institute, 2008.

The next data set concerns C. glabrata BG2. Put plainly: MIC against C. glabrata BG2. The format is cell-based. Conditions: Nakaseomyces glabratus; C. glabrata BG2, wild-type FKS genes.
A further data set relates to C. glabrata isolates. Kind of data set: Susceptibility profiles of C. glabrata clinical isolates. The format is cell-based. From the text:
168 C. glabrata isolates are collected from blood or other sterile sites in our repository. 11 clinical isolates are selected that display various susceptibility profiles against anidulafungin, caspofungin, and micafungin, and/or harbor mutant or wild-type FKS genes (Table 1). Additionally, 29 isolates are picked that are susceptible to all three echinocandins and harbor wild-type FKS genes. These 40 clinical isolates undergo CD101 susceptibility testing according to the CLSI broth microdilution reference methods. Stock solutions are prepared in DMSO. […] MICs are determined visually after 24-h of incubation. C. krusei ATCC 6258 and C. parapsilosis ATCC 22019 are included for quality controls.

A short description of data set [1]: Serum drug levels after single dose in mice. Conditions: mouse, single dose 5 mg/kg, read-out: serum drug level. The format is in vivo.

Values after ≈ are worked out from the molar mass of the structure shown. Numbered stars: 1 amine (or outer) side, 2 acyl side, 3 side chain; on linkers, the order of the positions; unused ones are H or OH. Bridge positions count the residues as written; N and C are the ends. Square brackets hold non-standard residues; d marks the D form. Peptide text beside a SMILES is read from it. * marks the point of attachment. hTyr(3S-OH,4S-OH,3'-OSO3H) = N[C@H](C(=O)O)[C@H](O)[C@@H](O)c1ccc(O)c(OS(=O)(=O)O)c1; Orn(4R-OH,5R-OH) = O=C([C@H](C[C@@H](O)[C@@H](O)N[*:3])N[*:1])[*:2]; Pro(3S-OH,4S-Me) = C[C@H]1CN[C@H](C(=O)O)[C@H]1O; X1 = CCCCCOc1ccc(-c2cc(-c3ccc(C(=O)*)cc3)no2)cc1; Gln(3R-OH) = NC(=O)C[C@@H](O)[C@H](N)C(=O)O; Hyp = O=C(O)[C@@H]1C[C@@H](O)CN1

In the case of `CCCCCOc1ccc(-c2cc(-c3ccc(C(=O)N[C@H]4C[C@@H](O)[C@@H](O)NC(=O)[C@@H]5[C@@H](O)[C@@H](C)CN5C(=O)[C@H]([C@H](O)CC(N)=O)NC(=O)[C@H]([C@H](O)[C@@H](O)c5ccc(O)c(OS(=O)(=O)O)c5)NC(=O)[C@@H]5C[C@@H](O)CN5C(=O)[C@H]([C@@H](C)O)NC4=O)cc3)no2)cc1` [micafungin] (X1-[Orn(4R-OH,5R-OH)]T[Hyp][hTyr(3S-OH,4S-OH,3'-OSO3H)][Gln(3R-OH)][Pro(3S-OH,4S-Me)]; lactam 1-C), the MIC was 0.03 µg/mL (≈ 0.0236 µM) in the data set with C. albicans and 0.06 µg/mL (≈ 0.0472 µM) with C. glabrata BG2. The “susceptibility profile, value” with C. glabrata isolates (Isolate 1, FKS R653I) worked out at 0.015; in the data set on C. glabrata isolates (Isolate 2, FKS Wild-type) it was 0.03; in the data set on C. glabrata isolates (Isolate 3, FKS F659L), 0.06; in the data set on C. glabrata isolates (Isolate 4, FKS F659S), 0.06; with C. glabrata isolates (Isolate 5, FKS R636S), 0.12; in the data set with C. glabrata isolates (Isolate 6, FKS F659del), 4. For the same molecule, the “susceptibility profile, value” in the data set on C. glabrata isolates (Isolate 7, FKS S663P) turned out to be 8; in the data set with C. glabrata isolates (Isolate 8, FKS S663P), 0.5; in the data set with C. glabrata isolates (Isolate 9, FKS D632Y), 0.25; with C. glabrata isolates (Isolate 10, FKS D632Y), 0.25; in the data set on C. glabrata isolates (Isolate 11, FKS F659del) it was 4. Moreover, in data set [1] (6 hours), the concentration at 6 h lay within 7000 to 10000 ng/mL. Moreover, the concentration at 24 h in data set [1] (24 hours) was approximately 2000 ng/mL.
